From patent US10858322B2, “Process for preparing 1-isobutyryl-1′-((1-(4,4,4-trifluorobutyl)-4,5,6,7-tetrahydro-1H-benzo[D]imidazol-2-yl)methyl)spiro[azetidine-3,3′-indolin]-2′-one” (SHANDONG DANHONG PHARMACEUTICAL CO., LTD., priority 2015, dated 2020) come the findings set out here.

As usually defined, the EC50 is the concentration at which the effect is half-maximal. In general, CC50 refers to the concentration that lowers cell viability or growth by half. Read a high CC50 as lower toxicity to the cells. The solubility is the concentration that dissolves in the medium under given conditions.

Each structure is given as a SMILES string. Converted amounts (≈) assume the structure as drawn. Bounds are passed on as bounds.

The subject of series [1] is RSV respiratory syncytial virus (Along strain). Briefly: microbe, parasite or virus in culture. The series is classed as cell-based. The protocol: And then sucked it into a 37° C., 5% CO2 incubator to digest.
3) Each T150 was suspended in 10 to 15 mL culture medium, 0.1 mL was taken and then diluted twice with trypan blue solution.
2) CCK-8 (Dojindo-CK04-20, 6 μL/well) was added to 384 well plates with Multidrop® automatic dispenser.
4) The data were analyzed.

Series [2] can be described thus: RSV long CPE assay, CC50 (in vitro toxicity). It is filed as cell-based. As to conditions: human; Hep2 cells, 5 days, CCK-8 readout, n = 7. The protocol:
(§1) RSV long CPE assay Experimental Purpose: The EC50 and CC50 values of anti-RSV respiratory syncytial virus compounds were detected by cytopathology. Experimental Materials: Cell Line: Hep2 Experimental Procedures and Methods: a) Cell Inoculation (Hep2 cell) 1) The cell culture medium was removed and washed with 10 mL of PBS; 2) The preheated trypsin was added to the cleaned culture flask and rotating the flask to allow the trypsin to uniformly cover the culture flask. And then sucked it into a 37° C., 5% CO2 incubator to digest. 3) Each T150 was suspended in 10 to 15 mL culture medium, 0.1 mL was taken and then diluted twice with trypan blue solution. […] The cells were centrifuged (300 rpm) and the cells were adhered to the wall and placed in a 37° C., 5% CO2 incubator overnight. b) Compound addition: 1) The compound dissolved in 100% DMSO was diluted in a half logarithm and added to the cell plate using an Echo liquid handler. To ensure that the final concentration of DMSO was 1%; [table] […] 2) CCK-8 (Dojindo-CK04-20, 6 μL/well) was added to 384 well plates with Multidrop® automatic dispenser. […] 4) The data were analyzed.

A further series has as its system Hep2 cells. In words: RSV long CPE assay, CC50 (in vitro toxicity). It is filed as cell-based. As to conditions: conclusion from the CPE assay CC50. The protocol: as §1
A short description of series [3]: Stability experiment of crystal form A in different solvents (XRPD). It is filed as physicochemical. As to conditions: 2 days. The protocol: The X-Ray Powder Diffraction method is as follows:
Instrument: Bruker D8 ADVANCE X-Ray diffractometer; Target: Cu: K-Alpha; Wavelength λ=1.54179 Å; Tube Voltage: 40 kV; Tube Current: 40 mA; Scanning scope: 4-40°; Sample Rotation speed: 15 rpm; Scanning speed: 10°/min.
The mixture was stirred at 40° C. If the compound was completely dissolved, the sample was allowed to cool to room temperature, and if the solid was precipitated, the mixture was continued to stir; and if the sample remained in solution, the solvent was naturally evaporated to remove. After all the suspensions were stirred for 2 days, the solids in all samples were collected and XRPD was used to detect the crystal form state.

A short description of series [4]: Solid physical stability of crystal form A under different temperature and humidity conditions. It is filed as physicochemical. As to conditions: 10th day. The protocol:
The X-Ray Powder Diffraction method is as follows: Instrument: Bruker D8 ADVANCE X-Ray diffractometer; Target: Cu: K-Alpha; Wavelength λ=1.54179 Å; Tube Voltage: 40 kV; Tube Current: 40 mA; Scanning scope: 4-40°; Sample Rotation speed: 15 rpm; Scanning speed: 10°/min. […] On the tenth day, all samples were removed and returned to room temperature. The appearance changes of samples were observed, and the crystal form of samples was detected by XRPD.

Series [5] in a line: Approximate solubility test of crystal form A. The series is classed as physicochemical. As to conditions: thermodynamic from solid, room temperature (20 to 30° C.).
[6] abbreviates: 0 day (−20° C. Sealed Storage) (Control Sample).
[7] abbreviates: 25° C./92.5% Relative Humidity (Open).
Setting [8] is: 60° C./75% Relative Humidity (Open).

In the case of `CC(C)C(=O)N1CC2(C1)C(=O)N(Cc1nc3c(n1CCCC(F)(F)F)CCCC3)c1ccccc12` [Compound of formula (I), 1-Isobutyryl-1′-((1-(4,4,4-trifluorobutyl)-4,5,6,7-tetrahydro-1H-benzo[d]imidazol-2-yl)methyl)spiro[azetidine-3,3′-indolin]-2′-one], in series [1] (conclusion from the CPE assay), the “activity in vitro compared with BMS433771” value is given as “better activity in vitro”. Moreover, in series [1] (human respiratory syncytial virus, HEp-2, 120 h, Hep2 cells, RSV A long strain, 5 days, CCK-8 readout, n = 7, read-out: CPE assay EC50), the concentration for a half-maximal effect (EC50) turned out to be 7 nM. The molecule also gave a half-maximal cytotoxic concentration (CC50) at 5 days in series [2] of more than 100000 nM. For the same molecule, the cytotoxicity entry in the series on Hep2 cells is reported as “no cytotoxicity”.
Take `CC(C)C(=O)N1CC2(C1)C(=O)N(Cc1nc3c(n1CCCC(F)(F)F)CCCC3)c1ccccc12` [Crystal Form A, 1-Isobutyryl-1′-((1-(4,4,4-trifluorobutyl)-4,5,6,7-tetrahydro-1H-benzo[d]imidazol-2-yl)methyl)spiro[azetidine-3,3′-indolin]-2′-one]: the “Result (crystal form by XRPD)” value in series [3] (2-Methyltetrahydrofuran, stirred at 40° C.) was “Crystal Form A”; in series [3] (Acetone, stirred at 40° C.), “Crystal Form A”; in series [3] (Acetone:water = 1:2, stirred at 40° C.) it was “Crystal Form B”; in series [3] (Dioxane, stirred at 40° C.), “Crystal Form A”; in series [3] (Ethanol, stirred at 40° C.), “Crystal Form A”; in series [3] (Ethanol:water = 3:1, stirred at 40° C.), “Crystal Form B”. Also, the “Result (crystal form by XRPD)” value in series [3] (Ethyl acetate, stirred at 40° C.) is recorded as “Crystal Form A”; in series [3] (Methanol:water = 3:1, stirred at 40° C.) it was “Crystal Form A”; in series [3] (Toluene, stirred at 40° C.), “Crystal Form A”. Besides, the Character entry in series [4] (setting [6]), in series [4] (setting [7]), in series [4] (60° C. (Open)) and in series [4] (setting [8]) was “White Powder” in each case. Also, the “Crystal Form” value in series [4] (setting [6]), in series [4] (setting [7]), in series [4] (60° C. (Open)) and in series [4] (setting [8]) was “Crystal Form A” throughout. The solubility is less than 2 mg/mL in series [5] (acetone-water (1:2), aqueous with cosolvent or surfactant or cyclodextrin, Acetone-H2O (1:2)); 46 to 58 mg/mL (≈ 94.2 to 119 mM) in series [5] (acetonitrile-water (1:1), aqueous with cosolvent or surfactant or cyclodextrin, Acetonitrile-H2O (1:1)); 2 to 2.7 mg/mL (≈ 4.09 to 5.53 mM) in series [5] (ethanol-water (1:1), aqueous with cosolvent or surfactant or cyclodextrin, Ethanol-H2O (1:1)); 22 to 24.5 mg/mL (≈ 45 to 50.1 mM) in series [5] (ethanol-water (3:1), aqueous with cosolvent or surfactant or cyclodextrin, Ethanol-H2O (3:1)); 2.5 to 3 mg/mL (≈ 5.12 to 6.14 mM) in series [5] (isopropanol-water (1:1), aqueous with cosolvent or surfactant or cyclodextrin, Isopropanol-H2O (1:1)); less than 2 mg/mL in series [5] (methanol-water (1:1), aqueous with cosolvent or surfactant or cyclodextrin, Methanol-H2O (1:1)). Moreover, the solubility was 45 to 56.5 mg/mL (≈ 92.1 to 116 mM) in series [5] (methanol-water (3:1), aqueous with cosolvent or surfactant or cyclodextrin, Methanol-H2O (3:1)); 56.9 to 75.8 mg/mL (≈ 116 to 155 mM) in series [5] (organic solvent or mixture, 2-Butanone); 45 to 56.7 mg/mL (≈ 92.1 to 116 mM) in series [5] (organic solvent or mixture, 2-Methyltetrahydrofuran); 45.9 to 57.4 mg/mL (≈ 94 to 117 mM) in series [5] (organic solvent or mixture, Acetone); 42 to 53.6 mg/mL (≈ 86 to 110 mM) in series [5] (organic solvent or mixture, Acetonitrile); less than 2 mg/mL in series [5] (organic solvent or mixture, Cyclohexane). Further, the solubility in series [5] (organic solvent or mixture, Dioxane) was in the range of 45 to 56.5 mg/mL (≈ 92.1 to 116 mM); in series [5] (organic solvent or mixture, Ethanol), 42 to 52.5 mg/mL (≈ 86 to 107 mM); in series [5] (organic solvent or mixture, Ethyl acetate), 29 to 34 mg/mL (≈ 59.4 to 69.6 mM); in series [5] (organic solvent or mixture, Isopropanol), 13.9 to 20.9 mg/mL (≈ 28.5 to 42.8 mM); in series [5] (organic solvent or mixture, Isopropyl acetate), 18 to 20.5 mg/mL (≈ 36.8 to 42 mM); in series [5] (organic solvent or mixture, Methanol), 115 to 231 mg/mL (≈ 235 to 473 mM). In addition, the solubility in series [5] (organic solvent or mixture, Methyl isobutyl ketone) is 22.9 to 25.5 mg/mL (≈ 46.9 to 52.2 mM); in series [5] (organic solvent or mixture, Methyl tert-butyl ether), 3 to 3.7 mg/mL (≈ 6.14 to 7.57 mM); in series [5] (organic solvent or mixture, Tetrahydrofuran) it was 113 to 226 mg/mL (≈ 231 to 463 mM); in series [5] (organic solvent or mixture, Toluene), 28 to 32.5 mg/mL (≈ 57.3 to 66.5 mM); in series [5] (organic solvent or mixture, n-Butyl alcohol), 25.9 to 29.5 mg/mL (≈ 53 to 60.4 mM); in series [5] (organic solvent or mixture, n-Heptane), less than 2 mg/mL. This molecule also yielded a solubility in series [5] (water, H2O) of less than 2 mg/mL.
